Experimental data reported in US20050261201A1, “Method of reducing C-reactive protein using growth hormone secretagogues” (Rejuvenon Corporation, priority 2004, published 2005).

System: human CRP
Test: CRP serum levels in CRP transgenic mice (ELISA)
Type: in vivo, C57BL/6J congenic CRP transgenic mice that express human CRP
Conditions: daily oral gavage for 14 days, serum at Day 15, vs saline vehicle, n=10
Method: The experiment was conducted to determine the effect of the growth hormone secretagogue RC-1141 on CRP serum levels. The compound RC-1141 was tested in C57BL/6J congenic CRP transgenic mice that express human CRP.
The establishment of a breeding colony of CRPtg C57BL/6J congenic mice has been described in Szalai, A. et al., “Human C-Reactive Protein is Protective Against Fatal Streptococcus pneumoniae Infection in Transgenic Mice,” J. Immunol. 155:2557-2563 (1995), the entire content of which is hereby incorporated by reference. The breeding colony was established by mating transgenic founder males with normal female C57BL/6J mice. The normal female C57BL/6J mice were obtained from Charles River Laboratories (Boston, Mass.). Transgenic founders were obtained from Dr. Ulrich Ruther (Institut für Molekularbiologie, Medizinische Hochschule, Hannover, Germany), and were descendants of transgenic mice originally described by Ciliberto, G., R. Arcone, E. F. Wagner, U. Rüther, “Inducible and tissue-specific expression of human C-reactive protein in transgenic mice” EMBO J, 6:4017 (1987), the entire content of which is hereby incorporated by reference. […]
CRP serum levels were measured using ELISA. […]
Concentration was determined by the ELISA described above. […]

CN(C(=O)/C=C/CC1(N)CCC1)[C@H](Cc1ccc(-c2ccccc2)cc1)C(=O)N(C)[C@H](Cc1ccccc1)C(=O)N1CCC(O)CC1 [RC-1141, (2E)-4-(1-aminocyclobutyl)but-2-enoic acid N-((1R)-1-{N-[(1R)-1-benzyl-2-(4-hydroxypiperidin-1-yl)-2-oxoethyl]-N-methylcarbomoyl}-2-(biphenyl-4-yl)ethyl)-N-methylamide]
CRP serum levels (5 mg/kg body weight (low dose)): significant decrease
CRP serum levels (10 mg/kg body weight (high dose)): significant decrease
